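Exposure lasted 48 hours, with cells grown in 96-well plates and compounds tested at five concentrations. GI50: concentration for 50% inhibition of growth. TGI: concentration producing complete growth inhibition.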
Key:
Test in all cases: growth of human tumour cells (NCI), 48 h
786-0 renal = tested on: 786-0 renal
A498 renal = tested on: A498 renal
A549 NSCLC = tested on: A549 NSCLC
ACHN renal = tested on: ACHN renal
BT-549 breast = tested on: BT-549 breast
CAKI-1 renal = tested on: CAKI-1 renal
CCRF-CEM leukemia = tested on: CCRF-CEM leukemia
COLO 205 colon = tested on: COLO 205 colon
DU-145 prostate = tested on: DU-145 prostate
EKVX NSCLC = tested on: EKVX NSCLC
HCC-2998 colon = tested on: HCC-2998 colon
HCT-116 colon = tested on: HCT-116 colon
HCT-15 colon = tested on: HCT-15 colon
HL-60(TB) leukemia = tested on: HL-60(TB) leukemia
HOP-62 NSCLC = tested on: HOP-62 NSCLC
HOP-92 NSCLC = tested on: HOP-92 NSCLC
HS 578T breast = tested on: HS 578T breast
HT29 colon = tested on: HT29 colon
IGROV1 ovarian = tested on: IGROV1 ovarian
K-562 leukemia = tested on: K-562 leukemia
KM12 colon = tested on: KM12 colon
LOX IMVI melanoma = tested on: LOX IMVI melanoma
M14 melanoma = tested on: M14 melanoma
MALME-3M melanoma = tested on: MALME-3M melanoma
MCF7 breast = tested on: MCF7 breast
MDA-MB-231 breast = tested on: MDA-MB-231 breast
MDA-MB-435 = tested on: MDA-MB-435
MOLT-4 leukemia = tested on: MOLT-4 leukemia
NCI-H226 lung = tested on: NCI-H226 lung
NCI-H23 lung = tested on: NCI-H23 lung
NCI-H460 lung = tested on: NCI-H460 lung
NCI-H522 lung = tested on: NCI-H522 lung
NCI/ADR-RES ovarian = tested on: NCI/ADR-RES ovarian
OVCAR-3 ovarian = tested on: OVCAR-3 ovarian
OVCAR-4 ovarian = tested on: OVCAR-4 ovarian
OVCAR-5 ovarian = tested on: OVCAR-5 ovarian
OVCAR-8 ovarian = tested on: OVCAR-8 ovarian
PC-3 prostate = tested on: PC-3 prostate
RPMI-8226 leukemia = tested on: RPMI-8226 leukemia
RXF 393 renal = tested on: RXF 393 renal
SF-268 CNS = tested on: SF-268 CNS
SF-295 CNS = tested on: SF-295 CNS
SF-539 CNS = tested on: SF-539 CNS
SK-MEL-2 melanoma = tested on: SK-MEL-2 melanoma
SK-MEL-28 melanoma = tested on: SK-MEL-28 melanoma
SK-MEL-5 melanoma = tested on: SK-MEL-5 melanoma
SK-OV-3 ovarian = tested on: SK-OV-3 ovarian
SN12C renal = tested on: SN12C renal
SNB-19 CNS = tested on: SNB-19 CNS
SNB-75 CNS = tested on: SNB-75 CNS
SR leukemia = tested on: SR leukemia
SW-620 colon = tested on: SW-620 colon
T-47D breast = tested on: T-47D breast
TK-10 renal = tested on: TK-10 renal
U251 CNS = tested on: U251 CNS
UACC-257 melanoma = tested on: UACC-257 melanoma
UACC-62 melanoma = tested on: UACC-62 melanoma
UO-31 renal = tested on: UO-31 renal

CCSc1ccc2c(c1)N(CCCN1CCN(C)CC1)c1ccccc1S2
GI50 (786-0 renal): 2.61 µM | TGI (786-0 renal): 7.6 µM | GI50 (A498 renal): 1.83 µM | TGI (A498 renal): 10.2 µM | GI50 (A549 NSCLC): 3.21 µM | TGI (A549 NSCLC): 10.5 µM | GI50 (ACHN renal): 2.49 µM | TGI (ACHN renal): 6.83 µM | GI50 (BT-549 breast): 4.75 µM | TGI (BT-549 breast): 18.9 µM | GI50 (CAKI-1 renal): 1.75 µM | TGI (CAKI-1 renal): 4.19 µM | GI50 (CCRF-CEM leukemia): 2.56 µM | TGI (CCRF-CEM leukemia): 7.1 µM | GI50 (COLO 205 colon): 1.76 µM | TGI (COLO 205 colon): 3.37 µM | GI50 (DU-145 prostate): 3.82 µM | TGI (DU-145 prostate): 14.2 µM | GI50 (EKVX NSCLC): 6.04 µM | TGI (EKVX NSCLC): 22.6 µM | GI50 (HCC-2998 colon): 1.7 µM | TGI (HCC-2998 colon): 3.28 µM | GI50 (HCT-116 colon): 2.04 µM | TGI (HCT-116 colon): 4.4 µM | GI50 (HCT-15 colon): 2.06 µM | TGI (HCT-15 colon): 4.98 µM | GI50 (HL-60(TB) leukemia): 1.83 µM | TGI (HL-60(TB) leukemia): 4.61 µM | GI50 (HOP-62 NSCLC): 2.84 µM | TGI (HOP-62 NSCLC): 8.15 µM | GI50 (HOP-92 NSCLC): 1.85 µM | TGI (HOP-92 NSCLC): 7.06 µM | GI50 (HS 578T breast): 2 µM | TGI (HS 578T breast): 5.56 µM | GI50 (HT29 colon): 1.81 µM | TGI (HT29 colon): 3.44 µM | GI50 (IGROV1 ovarian): 2.19 µM | TGI (IGROV1 ovarian): 5.41 µM | GI50 (K-562 leukemia): 2.39 µM | TGI (K-562 leukemia): > 100 µM | GI50 (KM12 colon): 1.87 µM | TGI (KM12 colon): 3.56 µM | GI50 (LOX IMVI melanoma): 1.67 µM | TGI (LOX IMVI melanoma): 3.16 µM | GI50 (M14 melanoma): 1.88 µM | TGI (M14 melanoma): 3.67 µM | GI50 (MALME-3M melanoma): 1.58 µM | TGI (MALME-3M melanoma): 3.35 µM | GI50 (MCF7 breast): 1.79 µM | TGI (MCF7 breast): 3.43 µM | GI50 (MDA-MB-231 breast): 2 µM | TGI (MDA-MB-231 breast): 4.95 µM | GI50 (MDA-MB-435): 1.72 µM | TGI (MDA-MB-435): 3.47 µM | GI50 (MOLT-4 leukemia): 2.64 µM | TGI (MOLT-4 leukemia): 6.53 µM | GI50 (NCI-H226 lung): 7.17 µM | TGI (NCI-H226 lung): 27.5 µM | GI50 (NCI-H23 lung): 6.58 µM | TGI (NCI-H23 lung): 21.3 µM | GI50 (NCI-H460 lung): 1.87 µM | TGI (NCI-H460 lung): 3.53 µM | GI50 (NCI-H522 lung): 1.7 µM | TGI (NCI-H522 lung): 3.5 µM | GI50 (NCI/ADR-RES ovarian): 3.68 µM | TGI (NCI/ADR-RES ovarian): 16.8 µM | GI50 (OVCAR-3 ovarian): 2.48 µM | TGI (OVCAR-3 ovarian): 7.12 µM | GI50 (OVCAR-4 ovarian): 3.63 µM | TGI (OVCAR-4 ovarian): 12.3 µM | GI50 (OVCAR-5 ovarian): 2.19 µM | TGI (OVCAR-5 ovarian): 6.44 µM | GI50 (OVCAR-8 ovarian): 4.39 µM | TGI (OVCAR-8 ovarian): 10.9 µM | GI50 (PC-3 prostate): 2.74 µM | TGI (PC-3 prostate): 9.64 µM | GI50 (RPMI-8226 leukemia): 2.46 µM | TGI (RPMI-8226 leukemia): 6.96 µM | GI50 (RXF 393 renal): 2.82 µM | TGI (RXF 393 renal): 8.88 µM | GI50 (SF-268 CNS): 3.96 µM | TGI (SF-268 CNS): 16.9 µM | GI50 (SF-295 CNS): 2.2 µM | TGI (SF-295 CNS): 5.97 µM | GI50 (SF-539 CNS): 1.83 µM | TGI (SF-539 CNS): 3.76 µM | GI50 (SK-MEL-2 melanoma): 3.25 µM | TGI (SK-MEL-2 melanoma): 8.49 µM | GI50 (SK-MEL-28 melanoma): 1.73 µM | TGI (SK-MEL-28 melanoma): 3.27 µM | GI50 (SK-MEL-5 melanoma): 1.73 µM | TGI (SK-MEL-5 melanoma): 3.16 µM | GI50 (SK-OV-3 ovarian): 10.4 µM | TGI (SK-OV-3 ovarian): 24 µM | GI50 (SN12C renal): 4.54 µM | TGI (SN12C renal): 18.4 µM | GI50 (SNB-19 CNS): 3.16 µM | TGI (SNB-19 CNS): 12 µM | GI50 (SNB-75 CNS): 1.79 µM | TGI (SNB-75 CNS): 5.5 µM | GI50 (SR leukemia): 2.71 µM | TGI (SR leukemia): 8.65 µM | GI50 (SW-620 colon): 1.88 µM | TGI (SW-620 colon): 3.65 µM | GI50 (T-47D breast): 2.17 µM | TGI (T-47D breast): 5.79 µM | GI50 (TK-10 renal): 1.73 µM | TGI (TK-10 renal): 3.27 µM | GI50 (U251 CNS): 2.05 µM | TGI (U251 CNS): 4.64 µM | GI50 (UACC-257 melanoma): 1.81 µM | TGI (UACC-257 melanoma): 3.48 µM | GI50 (UACC-62 melanoma): 1.67 µM | TGI (UACC-62 melanoma): 3.34 µM | GI50 (UO-31 renal): 2.1 µM | TGI (UO-31 renal): 10.1 µM
